Columns and labels:
Type in all cases: cell-based
A431 cells = experiment: VB-48 assay: vitality, viability and necrosis of treatments 1-10 (Table 3)
Procedure: Briefly, A431 cells were labeled with respective probes for specific treatments (listed below); cells were rinsed and evaluated for labeling. The test include the following treatments: […], treatments 3-4 of EGF-IRDye® 700DX at 0.5 μM and radiation, treatments 5-6 of IRDye® 700DX NHSe at 5 μM and radiation, treatments 7-8 of panitumumab-IRDye® 700DX at about 0.1 μM and radiation, treatment 9 of a negative control with no probe and no irradiation, and treatment 10 of RGD-IRDye® 700DX and no irradiation. The probes were incubated for about 10 minutes and with a longer period of about 20 minutes for the RGD probe. The cells were monitored with microscopy and morphology was examination 24 hours post treatment.
Low binding was expected for the RGD probe due to the low level of integrin receptors on A431 cells. […] By 3 hours post-irradiation all treatments except RGD (Treatment 1) show significant cytotoxicity. Vitality, viability and necrosis assays such as a VB-48 assay and JC-1 assay were performed.

HTB-186 cells [1] = experiment: Caspase 3/7 assay (Example 10, Table 8); details: 32 J/cm^2, probe about 5 hours, 20 hours post irradiation; 700DX-RGD and 700DX-EGF 500 nM
Procedure: (§1) This example illustrates the ability of IRDye® 700DX small molecule conjugates to induce apoptosis in cells, e.g., cancer cells. In this study HTB-186 cells (a desmoplastic cerebellar medulloblastoma cell line) were treated with IRDye® 700DX small molecule conjugates (IRDye® 700DX labeled chlorotoxin, anti-EGFR Affibody®, RGD peptide and EGF ligand). Apoptosis was measured by evaluating caspase 3/7 activity and mitochondrial membrane potential. […]
The caspase 3/7 assay was used to measure caspase 3/7 activity in the cells from the treatments listed above. […] Upon activation, the caspases cleave the substrate, and in turn, a fluorescence signal is emitted. […] The fluorescence can be detected by, for example, flow cytometry, fluorescence microscopy, and fluorescence-based image cytometry.
(§2) To determine whether the treated cells are undergoing apoptosis, a caspase 3/7 assay and mitochondrial potential assay were performed. […] Table 8 below provides cells number, % viability, JC-1% shift, and % late apoptotic and dead cells as determined by caspase 3/7 assay.

HTB-186 cells [2] = experiment: JC-1 mitochondrial membrane potential assay (Example 10, Table 8); details: 32 J/cm^2, probe about 5 hours, 20 hours post irradiation; 700DX-RGD and 700DX-EGF 500 nM
Procedure: as §1
In this study a mitochondrial membrane potential assay was performed on cells from treatments 1-8 to determine whether the treated cells underwent apoptosis. […] As JC-1 dye accumulated in mitochondria, its fluorescence emission shifts from green (about 529 nm) to red (about 590 nm). The presence of red fluorescence due to JC-1 aggregate formation corresponds to regions of high mitochondrial polarization. Depolarized mitochondria are indicated by green fluorescence of the JC-1 monomers. A detectable decrease in the red/green fluorescence intensity ratio indicates mitochondrial depolarization, and thus, apoptosis. In a membrane potential assay, cells are incubated with the JC-1 dye and fluorescence is detected by, for example, flow cytometry, fluorescence microscopy, and fluorescence-based image cytometry. […]

HTB-186 cells [3] = experiment: Viability, cell number and microscopy morphology at 20 h post irradiation (Example 10)
Procedure: This example illustrates the ability of IRDye® 700DX small molecule conjugates to induce apoptosis in cells, e.g., cancer cells. In this study HTB-186 cells (a desmoplastic cerebellar medulloblastoma cell line) were treated with IRDye® 700DX small molecule conjugates (IRDye® 700DX labeled chlorotoxin, anti-EGFR Affibody®, RGD peptide and EGF ligand). Apoptosis was measured by evaluating caspase 3/7 activity and mitochondrial membrane potential. Apoptosis can be characterized by a variety of cell morphological and biochemical changes including membrane blebbing, cell shrinkage, alteration of membrane asymmetry and permeability, and/or condensation of chromatin and nucleus (Coleman et al., Nat Cell Biol, 2001, 3(4):339-45, Bortner and Cidlowski, Biochem Pharmacol, 1998, 56(12):1549-59; van Engeland et al., Experimental Cell Research, 1997, 235:421-430).
Microscopy images of cells in petri-dishes were captured at 20 h post irradiation. The images were captured in DIC and 700 nm to visualize the probe, and composite images were generated (DIC+700 nm) to visualize the overlay.
as §2

[4] = irradiated (I) 32 J/cm^2, RGD 0.5 μM, EGF 0.5 μM, NHSe 5 μM, Pan ~0.1 μM
[5] = no irradiation (NI), RGD-700DX 0.5 μM

C[Si](C)(CCC[N+](CCCS(=O)(=O)O)(CCCS(=O)(=O)O)CCCS(=O)(=O)O)O[Si-2]123(O[Si](C)(C)CCC[N+](CCCS(=O)(=O)O)(CCCS(=O)(=O)O)CCCS(=O)(=O)O)n4c5c6ccccc6c4N=C4c6cccc(OCCCOC(=O)NCCCCCC(=O)NCCCC[C@@H]7NC(=O)[C@@H](Cc8ccccc8)NC(=O)[C@H](CC(=O)O)NC(=O)CNC(=O)[C@H](CCCNC(=N)N)NC7=O)c6C(=[N+]41)N=c1c4ccccc4c(n12)=NC1=[N+]3C(=N5)c2ccccc21 [RGD-700DX]
% Healthy (A431 cells; [4]): 91.6%
% Necrotic (A431 cells; [4]): 7%
Cells/mL (A431 cells; [4]): 6.6 × 10^5 Cells/mL
Low % Vitality (A431 cells; [4]): 2%
% Healthy (A431 cells; [5]): 90.8%
% Necrotic (A431 cells; [5]): 5%
Cells/mL (A431 cells; [5]): 5.8 × 10^5 Cells/mL
Low % Vitality (A431 cells; [5]): 4%
Caspase 3 % late apoptotic + dead cells (HTB-186 cells [1]): 57%
JC-1 % shift (HTB-186 cells [2]): 44%
cell morphology (HTB-186 cells [3]; 32 J/cm^2, 20 h post irradiation): appeared rounded and smaller
Cell # (HTB-186 cells [3]; 32 J/cm^2, probe about 5 hours, 20 hours post irradiation, 700DX-RGD and 700DX-EGF 500 nM): 0.6E6
